US20080312207A1, “Compounds” (priority 2004, published 2008)

How the values were obtained:
[1] = Oral exposure; assay type: in vivo; details: compared with Example II107 in WO 03/015774
[2] = target: T1, recombinant human pancreatic GLK (Homo sapiens, UniProt P35557); assay: Enzymatic activity of GLK (G-6-P dehydrogenase coupled, NADP/NADPH, OD 340 nm); assay type: biochemical; details: read-out: activating activity for glucokinase, EC50
T1 construct: 6-His (N); made in house; host or cells: E. coli BL21
T1 sequence (P35557 1-465): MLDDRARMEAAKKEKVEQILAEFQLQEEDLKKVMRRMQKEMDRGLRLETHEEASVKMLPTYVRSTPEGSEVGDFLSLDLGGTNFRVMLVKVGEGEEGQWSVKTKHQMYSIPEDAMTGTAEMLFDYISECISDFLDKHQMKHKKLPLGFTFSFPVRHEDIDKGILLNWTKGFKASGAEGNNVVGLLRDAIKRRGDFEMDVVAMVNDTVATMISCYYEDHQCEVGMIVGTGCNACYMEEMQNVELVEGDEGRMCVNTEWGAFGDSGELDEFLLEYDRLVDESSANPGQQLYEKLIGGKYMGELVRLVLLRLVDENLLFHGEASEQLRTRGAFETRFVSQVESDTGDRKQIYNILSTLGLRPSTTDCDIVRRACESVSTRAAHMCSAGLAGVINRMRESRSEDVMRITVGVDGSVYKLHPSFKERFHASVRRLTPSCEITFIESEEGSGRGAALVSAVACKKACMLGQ

[3] = system: Zucker obese fa/fa rats; assay: Oral Glucose Tolerance Test (OGTT); assay type: in vivo, rat; details: 10 mg/kg, given orally 120 minutes before glucose 2 g/kg; percent inhibition of blood glucose AUC vs vehicle
Procedure: The animals were fasted for 2 hours before use for experiments. A test compound or a vehicle was given orally 120 minutes before oral administration of a glucose solution at a dose of 2 g/kg body weight. Blood glucose levels were measured using a Accucheck glucometer from tail bled samples taken at different time points before and after administration of glucose (time course of 60 minutes). […] Percent inhibition is determined using the AUC in the vehicle-control group as zero percent inhibition.

Row | Structure (SMILES) | oral exposure [1] | EC50 [2] | OGTT activity [3]
1 | CC(C)Oc1cc(Oc2ccc(S(C)(=O)=O)cc2)cc(C(=O)Nc2nccs2)c1 [Example 7c, 3-(1-methylethyl)oxy-5-[4-(methylsulfonyl)phenoxy]-N-1,3-thiazol-2-ylbenzamide] | superior | 50 nM | 18%
2 | Cc1cnc(NC(=O)c2cc(OCCc3ccsc3)cc(OC(C)C)c2)s1 [Example II107 in WO 03/015774, reference compound] |  |  | not active
